Experimental data from patent US20140275049A1, “SUBSTITUTED PYRAZOLE ANALOGS As RAR ANTAGONISTS” (Eli Lilly and Company, priority 2011, published 2014).

Assays:
[1] = biological target: T1, RARγ (Homo sapiens, UniProt P13631); experiment: RARγ binding assay (SPA, 3H-TTNPB competition); settings: RARγ/RXRα heterodimer
T1 construct: made in house; host or cells: baculovirus expression system
T1 sequence (P13631 1-454): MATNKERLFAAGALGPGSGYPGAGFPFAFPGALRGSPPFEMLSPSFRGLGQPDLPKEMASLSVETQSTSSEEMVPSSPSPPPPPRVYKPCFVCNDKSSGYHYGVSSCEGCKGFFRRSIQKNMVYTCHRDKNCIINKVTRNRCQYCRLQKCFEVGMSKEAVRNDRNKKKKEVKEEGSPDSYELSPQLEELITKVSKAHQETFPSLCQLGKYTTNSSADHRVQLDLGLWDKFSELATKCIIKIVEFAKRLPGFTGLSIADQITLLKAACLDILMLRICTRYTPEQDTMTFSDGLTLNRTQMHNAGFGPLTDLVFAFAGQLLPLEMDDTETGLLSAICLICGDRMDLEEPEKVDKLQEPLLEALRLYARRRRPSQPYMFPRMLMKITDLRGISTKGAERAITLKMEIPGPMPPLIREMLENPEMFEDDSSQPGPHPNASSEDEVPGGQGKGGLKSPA
T1 sequence (P19793 1-462 partner): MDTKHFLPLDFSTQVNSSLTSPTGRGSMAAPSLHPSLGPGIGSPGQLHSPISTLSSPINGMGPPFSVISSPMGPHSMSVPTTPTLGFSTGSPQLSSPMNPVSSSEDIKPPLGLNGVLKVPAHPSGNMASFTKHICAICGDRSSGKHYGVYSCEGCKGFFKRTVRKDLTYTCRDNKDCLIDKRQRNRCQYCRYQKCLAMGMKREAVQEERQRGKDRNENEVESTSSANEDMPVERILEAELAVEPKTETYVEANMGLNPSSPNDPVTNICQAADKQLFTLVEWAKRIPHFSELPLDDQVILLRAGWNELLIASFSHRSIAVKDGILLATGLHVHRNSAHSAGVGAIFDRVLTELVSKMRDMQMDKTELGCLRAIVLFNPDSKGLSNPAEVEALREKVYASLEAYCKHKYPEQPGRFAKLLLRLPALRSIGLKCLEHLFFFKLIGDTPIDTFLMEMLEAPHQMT
Excerpt: (§1) Compounds can be evaluated for binding to RARα, β and γ by measuring their ability to competitively bind to the RAR receptors when dimerized with the binding partner RXRα. Competitive binding assays may be carried out by Scintillation Proximity Assay (SPA) technology using the RARα, β or γ heterodimer (with RXRα as a partner with all the RARs) receptors prepared in a baculovirus expression system. Use the biotinylated oligonucleotide: 5′-[…]-3′ for binding of receptor to yttrium silicate streptavidin-coated SPA beads. Per well, preincubate […] with 82.7 μg SPA beads in a binding buffer containing 10 mM HEPES pH 7.8, 80 mM KCl, 0.5 mM MgCl2, 1 mM DTT, 0.5% CHAPS and 16.6 μg bovine serum albumin for 30 min at room temperature. Then spin the mixture at 2,000 rpm for 3 min to pelletize the beads-oligo mix. Remove the supernatant and resuspend the beads-oligo pellet in the same binding buffer as above, but which in addition now also contain 14% glycerol, 5 μg of sheared salmon sperm DNA, 0.5 μg of RARα, 1.0 μg of RARβ, or 0.25 μg of RARγ receptor, respectively. Carry out the binding assays in the presence of ˜11.3 μCi of ^3H 4-[(E)-2-(5,6,7,8-tetrahydro-5,5,8,8-tetramethyl-2-naphthalenyl)-1-propenyl]benzoic acid (TTNPB), and multiple concentrations of test compound ranging from (5 nM to 10 μM). Non-specific binding may be determined in the presence of 1 μM unlabeled TTNPB. Use the data to calculate an IC50 for compounds after fitting the dose-response curves to a 4-parameter logistic fit. Use the Cheng-Prusoff equation to convert IC50 (nM) values for compounds to Ki, and the Kd may be determined by saturation binding.

[2] = biological target: T2, RARα (Homo sapiens, UniProt P10276); experiment: RARα binding assay (SPA, 3H-TTNPB competition); settings: RARα/RXRα heterodimer
T2 construct: made in house; host or cells: baculovirus expression system
T2 sequence (P10276 1-462): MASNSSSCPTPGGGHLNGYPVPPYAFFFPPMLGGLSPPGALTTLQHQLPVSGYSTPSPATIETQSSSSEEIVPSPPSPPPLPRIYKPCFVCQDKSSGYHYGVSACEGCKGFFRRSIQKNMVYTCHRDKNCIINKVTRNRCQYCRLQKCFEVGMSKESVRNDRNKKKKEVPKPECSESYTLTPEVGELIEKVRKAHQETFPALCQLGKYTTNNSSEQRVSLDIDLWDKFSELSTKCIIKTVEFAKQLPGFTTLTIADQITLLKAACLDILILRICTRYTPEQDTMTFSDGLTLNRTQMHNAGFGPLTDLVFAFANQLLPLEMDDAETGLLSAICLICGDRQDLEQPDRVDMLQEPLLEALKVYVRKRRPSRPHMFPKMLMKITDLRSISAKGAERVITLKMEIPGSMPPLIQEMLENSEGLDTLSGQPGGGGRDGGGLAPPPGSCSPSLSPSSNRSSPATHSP
T2 sequence (P19793 1-462 partner): T1 sequence (P19793 1-462 partner)
Excerpt: as §1

Ki [1] [nM] | Ki [2] [nM] | Compound
3.06 | 386 | CC(C)Sc1cc(-c2cc(-c3ccc(C(=O)O)cc3)nn2-c2ccc(C(=O)N(C)C)cc2)cc(C(C)(C)C)c1 [Example 12, 4-[5-(3-tert-Butyl-5-isopropylsulfanyl-phenyl)-1-[4-(dimethylcarbamoyl)phenyl]pyrazol-3-yl]benzoic Acid]
1.58 | 357 | CC(C)(C)c1cc(-c2cc(-c3ccc(C(=O)O)cc3)nn2-c2ccc(C(=O)N3CCOCC3)cc2)cc(C(C)(C)C)n1 [Example 8, 4-[5-(2,6-Di-tert-butyl-4-pyridyl)-1-[4-(morpholine-4-carbonyl)phenyl]pyrazol-3-yl]benzoic acid]
1.69 | > 970 | CN1CCN(C(=O)c2ccc(-n3nc(-c4ccc(C(=O)O)cc4)cc3-c3cc(C(C)(C)C)cc(C(C)(C)C)c3)cc2)CC1 [Example 1, 4-[5-(3,5-Di-tert-butylphenyl)-1-[4-(4-methylpiperazine-1-carbonyl)phenyl]pyrazol-3-yl]benzoic Acid]
2.76 | 285 | CC(C)(C)c1cc(-c2cc(-c3ccc(C(=O)O)cc3)nn2-c2ccc(S(C)(=O)=O)cc2)cc(C(C)(C)C)c1 [Example 19, 4-[5-(3,5-Di-tert-butylphenyl)-1-(4-methylsulfonylphenyl)pyrazol-3-yl]benzoic Acid]
